Key:
[1] = target: T1, IL-17A/A (Homo sapiens, UniProt Q16552); test: IL-17A/A HEK-Blue cell assay (SEAP reporter); format: cell-based; conditions: HEK-Blue IL-17A reporter cells, IL17A/A 5 ng/mL, 20 hours, SEAP read at A630; read-out: HEK-Blue IL17AA (IC50 for IL-17A/A inhibition)
T1 construct: purchased Genscript Z03228
T1 sequence (Q16552 24-155): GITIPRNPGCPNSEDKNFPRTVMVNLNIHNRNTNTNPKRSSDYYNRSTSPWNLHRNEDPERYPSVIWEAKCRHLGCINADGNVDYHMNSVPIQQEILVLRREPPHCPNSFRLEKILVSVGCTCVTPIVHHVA
Procedure: (§1) The HEK-Blue IL-17A reporter cell line (Fisher #NC 1408637) was used for cell-based IL-17A/A inhibition assays. Cells were grown and prepared for assays according to the manufacturer's instructions. This cell line consists of HEK 293 cells that were designed to expressed IL-17RA, IL-17RC, and the Act1 adapter molecule, the combination of which, when stimulated by IL-17A/A or IL17A/F activates a […] promoter and drives expression of the recombinant Secreted Alkaline Phosphatase (SEAP) gene. Media from the cells is then added to a development reagent (Quanti-Blue Substrate, Fisher #NC971 1613), and read at A630.
(§2) Compounds were dispensed in DMSO to an empty clear 384-well tissue culture plate in a titration ranging from 10 μM to 27 pM, with DMSO added to every well to a final concentration of […]. Cells were then added to the plate (45 μL/well at a concentration of 280,000 cells/mL). IL17A/A (Genscript #Z03228) or IL17A/F (R&D Systems) was added to the plate to a final concentration of 5 ng/mL and a final well volume of 50 μL. The cells, compound, and IL-17A/A or IL17A/F were then incubated for 20 hours before media was removed for SEAP analysis. The resulting inhibition curve was then analyzed using Dotmatics' integrated 4-parameter fit screening protocol to generate IC50 values.
(§3) Table 2 includes IC50 values for IL-17A/A and IL-17A/F inhibition of selected compounds; with compounds having a IC50 of A<100 nM; B 100-1000 nM; and C>1000 nM.

[2] = target: T2, IL-17A/F (Homo sapiens, UniProt Q16552+Q96PD4); test: IL-17A/F HEK-Blue cell assay (SEAP reporter); format: cell-based; conditions: HEK-Blue IL-17A reporter cells, IL17A/F 5 ng/mL, 20 hours, SEAP read at A630; read-out: HEK-Blue IL17AF (IC50 for IL-17A/F inhibition)
T2 construct: purchased R&D Systems
T2 sequence (Q16552 24-155): T1 sequence (Q16552 24-155)
T2 sequence (Q96PD4 31-163): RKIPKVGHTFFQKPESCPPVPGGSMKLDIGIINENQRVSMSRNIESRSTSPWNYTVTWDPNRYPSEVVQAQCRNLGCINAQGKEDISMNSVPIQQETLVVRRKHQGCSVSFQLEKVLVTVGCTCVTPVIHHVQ
Procedure: as §1, §2, §3

In the case of `CCn1nccc1C(=O)N[C@H](c1cn2nc(CC3C[C@@H](C(F)(F)F)CNC3=O)c(N3CCOCC3)nc2n1)C(C1CC1)C1CC1` (single isomer, unassigned) [Compound 111], the IC50 [1] is reported as < 0.1 µM and the IC50 [2] is reported as 0.1 to 1 µM.
`CCn1nccc1C(=O)N[C@H](c1cn2nc(CC3C[C@@H](C(F)(F)F)CNC3=O)c(N3CCOCC3)nc2n1)C(C1CC1)C1CC1` (single isomer, unassigned) [Compound 112] was tested, and the IC50 [1] was < 0.1 µM and the IC50 [2] was 0.1 to 1 µM.
`O=C(N[C@H](c1cn2nc(CC3C[C@@H](C(F)(F)F)CNC3=O)c(N3CCOCC3)nc2n1)C1CCC(F)(F)CC1)c1conc1C1CC1(F)F` (single isomer, unassigned) [Compound 113] was tested, and the IC50 [1] was < 0.1 µM and the IC50 [2] was 0.1 to 1 µM.
`O=C(N[C@H](c1cn2nc(CC3C[C@@H](C(F)(F)F)CNC3=O)c(N3CCOCC3)nc2n1)C1CCC(F)(F)CC1)c1conc1C1CC1(F)F` (single isomer, unassigned) [Compound 114] was tested, and the IC50 [1] was < 0.1 µM and the IC50 [2] was > 1 µM.
With `O=C(N[C@H](c1cn2nc(CC3C[C@@H](C(F)(F)F)CNC3=O)c(N3CCOCC3)nc2n1)C1CCC(F)(F)CC1)c1conc1C1CC1(F)F` (single isomer, unassigned) [Compound 115] the IC50 [1] was < 0.1 µM and the IC50 [2] was > 1 µM.
In the case of `O=C(N[C@H](c1cn2nc(CC3C[C@@H](C(F)(F)F)CNC3=O)c(N3CCOCC3)nc2n1)C1CCC(F)(F)CC1)c1conc1C1CC1(F)F` (single isomer, unassigned) [Compound 116], the IC50 [1] is reported as < 0.1 µM and the IC50 [2] is reported as > 1 µM.
`C[C@H]1CC[C@H]([C@H](NC(=O)C2(F)CC2)c2cn3nc(CC4C[C@@H](C(F)(F)F)CNC4=O)c(N4CCOCC4)nc3n2)CC1` (single isomer, unassigned) [Compound 118] was tested, and the IC50 [1] was 0.1 to 1 µM and the IC50 [2] was > 1 µM.
With `C[C@H]1CC[C@H]([C@H](NC(=O)C2(F)CC2)c2cn3nc(CC4C[C@@H](C(F)(F)F)CNC4=O)c(N4CCOCC4)nc3n2)CC1` (single isomer, unassigned) [Compound 120] the IC50 [1] was 0.1 to 1 µM and the IC50 [2] was > 1 µM.
In the case of `CCn1nccc1C(=O)N[C@H](c1cn2nc(CC3C[C@@H](C(F)(F)F)CNC3=O)c(N3CCO[C@H](C)C3)nc2n1)[C@@H]1CCCC(F)(F)C1` (single isomer, unassigned) [Compound 124], the IC50 [1] is reported as < 0.1 µM and the IC50 [2] is reported as 0.1 to 1 µM.
In the case of `O=C(N[C@H](c1cn2nc(C[C@H]3C[C@@H](C(F)(F)F)CNC3=O)c(C3CCCOC3)nc2n1)[C@H]1CCCC(F)(F)C1)c1nonc1C1CC1` (single isomer, unassigned) [Compound 125], the IC50 [1] is reported as < 0.1 µM and the IC50 [2] is reported as > 1 µM.
`O=C(N[C@H](c1cn2nc(C[C@H]3C[C@@H](C(F)(F)F)CNC3=O)c(C3CCCOC3)nc2n1)[C@H]1CCCC(F)(F)C1)c1nonc1C1CC1` (single isomer, unassigned) [Compound 126] was tested, and the IC50 [1] was < 0.1 µM and the IC50 [2] was 0.1 to 1 µM.
With `CC(C)n1nccc1C(=O)N[C@H](c1cn2nc(CC3C[C@@H](C(F)(F)F)CNC3=O)c(N3CC4CC(C3)O4)nc2n1)[C@H]1CCCC(F)(F)C1` (single isomer, unassigned) [Compound 128] the IC50 [1] was < 0.1 µM and the IC50 [2] was 0.1 to 1 µM.
In the case of `CC(C)n1nccc1C(=O)N[C@H](c1cn2nc(CC3C[C@@H](C(F)(F)F)CNC3=O)c(N3CC4CC(C3)O4)nc2n1)[C@@H]1CCCC(F)(F)C1` (single isomer, unassigned) [Compound 129], the IC50 [1] is reported as < 0.1 µM and the IC50 [2] is reported as 0.1 to 1 µM.
`CC(C)n1nccc1C(=O)N[C@H](c1cn2nc(CC3C[C@@H](C(F)(F)F)CNC3=O)c(N3CC4CC(C3)O4)nc2n1)[C@H]1CCCC(F)(F)C1` (single isomer, unassigned) [Compound 130] was tested, and the IC50 [1] was < 0.1 µM and the IC50 [2] was > 1 µM.
In the case of `CC(C)n1nccc1C(=O)N[C@H](c1cn2nc(CC3C[C@@H](C(F)(F)F)CNC3=O)c(N3CC4CC(C3)O4)nc2n1)[C@@H]1CCCC(F)(F)C1` (single isomer, unassigned) [Compound 131], the IC50 [1] is reported as < 0.1 µM and the IC50 [2] is reported as > 1 µM.
`CC(C)n1nccc1C(=O)N[C@H](c1cn2nc(C[C@H]3C[C@@H](C(F)(F)F)CNC3=O)c(C3CCOC3)nc2n1)C1CCC(F)(F)CC1` (single isomer, unassigned) [Compound 132] was tested, and the IC50 [1] was < 0.1 µM and the IC50 [2] was 0.1 to 1 µM.
`CC(C)n1nccc1C(=O)N[C@H](c1cn2nc(C[C@H]3C[C@@H](C(F)(F)F)CNC3=O)c(C3CCOC3)nc2n1)C1CCC(F)(F)CC1` (single isomer, unassigned) [Compound 133] was tested, and the IC50 [1] was < 0.1 µM and the IC50 [2] was 0.1 to 1 µM.
`O=C(N[C@H](c1cn2nc(C[C@H]3C[C@@H](C(F)(F)F)CNC3=O)c(C3CCOC3)nc2n1)C1CCC(F)(F)CC1)c1nonc1C1CC1` (single isomer, unassigned) [Compound 134] was tested, and the IC50 [1] was < 0.1 µM and the IC50 [2] was > 1 µM.
In the case of `O=C(N[C@H](c1cn2nc(C[C@H]3C[C@@H](C(F)(F)F)CNC3=O)c(C3CCOC3)nc2n1)C1CCC(F)(F)CC1)c1nonc1C1CC1` (single isomer, unassigned) [Compound 135], the IC50 [1] is reported as < 0.1 µM and the IC50 [2] is reported as > 1 µM.
With `CCn1nccc1C(=O)N[C@H](c1cn2nc(C[C@H]3C[C@@H](C(F)(F)F)CNC3=O)c(C3CCOC3)nc2n1)[C@H]1CC[C@H](C)CC1` (single isomer, unassigned) [Compound 138] the IC50 [1] was < 0.1 µM and the IC50 [2] was < 0.1 µM.
In the case of `CCn1nccc1C(=O)N[C@H](c1cn2nc(C[C@H]3C[C@@H](C(F)(F)F)CNC3=O)c(C3CCOC3)nc2n1)[C@H]1CC[C@H](C)CC1` (single isomer, unassigned) [Compound 139], the IC50 [1] is reported as < 0.1 µM and the IC50 [2] is reported as < 0.1 µM.
In the case of `O=C(N[C@H](c1cn2nc(C[C@H]3C[C@@H](C(F)(F)F)CNC3=O)c(C3CCOCC3)nc2n1)C1CCC(F)(F)CC1)c1conc1C1CC1(F)F` (single isomer, unassigned) [Compound 144], the IC50 [1] is reported as < 0.1 µM and the IC50 [2] is reported as 0.1 to 1 µM.
For `O=C(N[C@H](c1cn2nc(C[C@H]3C[C@@H](C(F)(F)F)CNC3=O)c(C3CCOCC3)nc2n1)C1CCC(F)(F)CC1)c1conc1C1CC1(F)F` (single isomer, unassigned) [Compound 145], the IC50 [1] was < 0.1 µM and the IC50 [2] was 0.1 to 1 µM.
With `CCn1nccc1C(=O)N[C@@H](COC(C)(C)C(F)(F)F)c1cn2nc(C[C@H]3C[C@@H](C(F)(F)F)CNC3=O)c(C3CCOCC3)nc2n1` (single isomer, unassigned) [Compound 159] the IC50 [1] was < 0.1 µM and the IC50 [2] was > 1 µM.
`CCn1nccc1C(=O)N[C@@H](CCC(C)(C)C(F)(F)F)c1cn2nc(C[C@H]3C[C@@H](C(F)(F)F)CNC3=O)c(C3CCOCC3)nc2n1` (single isomer, unassigned) [Compound 160] was tested, and the IC50 [1] was < 0.1 µM and the IC50 [2] was 0.1 to 1 µM.
`CCn1nccc1C(=O)N[C@H](c1cn2nc(C[C@H]3C[C@@H](C(F)(F)F)CNC3=O)c(C3CCOC(C)(C)C3)nc2n1)C1CCC(F)(F)CC1` (single isomer, unassigned) [Compound 163] was tested, and the IC50 [1] was < 0.1 µM and the IC50 [2] was 0.1 to 1 µM.
With `CCn1nccc1C(=O)N[C@H](c1cn2nc(C[C@H]3C[C@@H](C(F)(F)F)CNC3=O)c(C3(C)CCCOC3)nc2n1)C1CCC(F)(F)CC1` (single isomer, unassigned) [Compound 165] the IC50 [1] was < 0.1 µM and the IC50 [2] was 0.1 to 1 µM.
With `CCn1nccc1C(=O)N[C@H](c1cn2nc(C[C@H]3C[C@@H](C(F)(F)F)CNC3=O)c(C3(C)CCOC3)nc2n1)C1CCC(F)(F)CC1` (single isomer, unassigned) [Compound 166] the IC50 [1] was < 0.1 µM and the IC50 [2] was 0.1 to 1 µM.
In the case of `CCn1nccc1C(=O)N[C@H](c1cn2nc(C[C@H]3C[C@@H](C(F)(F)F)CNC3=O)c(C(C)C(F)(F)F)nc2n1)C1CCC(F)(F)CC1` (single isomer, unassigned) [Compound 174], the IC50 [1] is reported as < 0.1 µM and the IC50 [2] is reported as 0.1 to 1 µM.
`CCn1nccc1C(=O)N[C@H](c1cn2nc(C[C@H]3C[C@@H](C(F)(F)F)CNC3=O)c(C(C)C(F)(F)F)nc2n1)C1CCC(F)(F)CC1` (single isomer, unassigned) [Compound 175] was tested, and the IC50 [1] was < 0.1 µM and the IC50 [2] was 0.1 to 1 µM.
For `CCn1nccc1C(=O)N[C@H](c1cn2nc(C[C@H]3C[C@@H](C(F)(F)F)CNC3=O)c(C3CCOC(C)(C)C3)nc2n1)C1CCC(F)(F)CC1` (single isomer, unassigned) [Compound 176], the IC50 [1] was < 0.1 µM and the IC50 [2] was < 0.1 µM.
In the case of `CCn1nccc1C(=O)N[C@H](c1cn2nc(C[C@H]3C[C@@H](C(F)(F)F)CNC3=O)c(C3(C)CCCOC3)nc2n1)C1CCC(F)(F)CC1` (single isomer, unassigned) [Compound 177], the IC50 [1] is reported as < 0.1 µM and the IC50 [2] is reported as 0.1 to 1 µM.
